What was measured:
Test in all cases: relative viability (nuclei count vs DMSO), 5 days (fraction); higher = more cells survive
[1] = system: NCI-H1975
Summary of the method: (§1)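 Nuclei were stained with Hoechst during a one-step fixation (final 0.05% Triton X-100, 1% formaldehyde, 1 ug/ml Hoechst) carried out 5 days after dosing, then counted on 4× images. The cells, lung cancer lines in 1536-well plates, had been dosed by pin tool the day after seeding with one drug alone or a fixed anchor-drug dose plus five library-drug doses (not always all listed) in √10 steps. Relative viability is the nuclei count in treated wells divided by that in vehicle wells, and each value is the median of duplicate plates.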

[2] = system: LK-2
Summary of the method: as §1

[3] = system: EKVX
Summary of the method: as §1

[4] = system: ChaGo-K-1
Summary of the method: as §1

[5] = system: EPLC-272H
Summary of the method: as §1

[6] = system: NCI-H1666
Summary of the method: as §1

[7] = system: SW 1573
Summary of the method: as §1

[8] = system: EMC-BAC-2
Summary of the method: as §1

[9] = system: HCC-78
Summary of the method: as §1

[10] = system: LCLC-103H
Summary of the method: as §1

[11] = system: NCI-H322M
Summary of the method: as §1

[12] = system: LU99A
Summary of the method: as §1

[13] = system: SW 900
Summary of the method: as §1

[14] = system: HCC-827
Summary of the method: as §1

[15] = system: NCI-H2342
Summary of the method: as §1

[16] = system: RERF-LC-KJ
Summary of the method: as §1

[17] = system: NCI-H23
Summary of the method: as §1

[18] = system: SK-LU-1
Summary of the method: as §1

[19] = system: PC-14
Summary of the method: as §1

[20] = system: NCI-H2126
Summary of the method: as §1

[21] = system: NCI-H2405
Summary of the method: as §1

Cc1sc2c(c1C)C(c1ccc(Cl)cc1)=N[C@@H](CC(=O)OC(C)(C)C)c1nnc(C)n1-2 [JQ1] + O=C(CCCCCCC(=O)Nc1ccccc1)NO [Vorinostat] (partner 1 µM)
relative viability ([1]; first compound 0.04 µM): 0.729
relative viability ([1]; first compound 0.1265 µM): 0.6
relative viability ([1]; first compound 0.4 µM): 0.64
relative viability ([1]; first compound 1.265 µM): 0.325
relative viability ([1]; first compound 4 µM): 0.263
relative viability ([2]; first compound 0.04 µM): 0.301
relative viability ([2]; first compound 0.1265 µM): 0.233
relative viability ([2]; first compound 0.4 µM): 0.281
relative viability ([2]; first compound 1.265 µM): 0.128
relative viability ([2]; first compound 4 µM): 0.101
relative viability ([3]; first compound 0.04 µM): 0.789
relative viability ([3]; first compound 0.4 µM): 0.739
relative viability ([3]; first compound 1.265 µM): 0.466
relative viability ([3]; first compound 4 µM): 0.496
relative viability ([4]; first compound 0.04 µM): 0.752
relative viability ([4]; first compound 0.1265 µM): 0.57
relative viability ([4]; first compound 0.4 µM): 0.639
relative viability ([4]; first compound 1.265 µM): 0.505
relative viability ([4]; first compound 4 µM): 0.491
relative viability ([5]; first compound 0.04 µM): 0.473
relative viability ([5]; first compound 0.1265 µM): 0.391
relative viability ([5]; first compound 0.4 µM): 0.274
relative viability ([5]; first compound 1.265 µM): 0.175
relative viability ([5]; first compound 4 µM): 0.206
relative viability ([6]; first compound 0.04 µM): 0.972
relative viability ([6]; first compound 0.1265 µM): 0.944
relative viability ([6]; first compound 0.4 µM): 0.988
relative viability ([6]; first compound 1.265 µM): 0.823
relative viability ([6]; first compound 4 µM): 0.788
relative viability ([7]; first compound 0.04 µM): 0.695
relative viability ([7]; first compound 0.1265 µM): 0.365
relative viability ([7]; first compound 0.4 µM): 0.338
relative viability ([7]; first compound 1.265 µM): 0.231
relative viability ([7]; first compound 4 µM): 0.238
relative viability ([8]; first compound 0.04 µM): 0.423
relative viability ([8]; first compound 0.4 µM): 0.367
relative viability ([8]; first compound 1.265 µM): 0.281
relative viability ([8]; first compound 4 µM): 0.237
relative viability ([9]; first compound 0.04 µM): 0.436
relative viability ([9]; first compound 0.1265 µM): 0.398
relative viability ([9]; first compound 0.4 µM): 0.466
relative viability ([9]; first compound 1.265 µM): 0.312
relative viability ([9]; first compound 4 µM): 0.329
relative viability ([10]; first compound 0.04 µM): 0.832
relative viability ([10]; first compound 0.1265 µM): 0.536
relative viability ([10]; first compound 0.4 µM): 0.581
relative viability ([10]; first compound 1.265 µM): 0.455
relative viability ([10]; first compound 4 µM): 0.375
relative viability ([11]; first compound 0.04 µM): 0.853
relative viability ([11]; first compound 0.1265 µM): 1.12
relative viability ([11]; first compound 0.4 µM): 0.687
relative viability ([11]; first compound 1.265 µM): 0.55
relative viability ([11]; first compound 4 µM): 0.465
relative viability ([12]; first compound 0.04 µM): 0.61
relative viability ([12]; first compound 0.4 µM): 0.363
relative viability ([12]; first compound 1.265 µM): 0.278
relative viability ([12]; first compound 4 µM): 0.188
relative viability ([13]; first compound 0.04 µM): 0.448
relative viability ([13]; first compound 0.1265 µM): 0.611
relative viability ([13]; first compound 0.4 µM): 0.332
relative viability ([13]; first compound 1.265 µM): 0.174
relative viability ([13]; first compound 4 µM): 0.157
relative viability ([14]; first compound 0.04 µM): 0.95
relative viability ([14]; first compound 0.1265 µM): 0.464
relative viability ([14]; first compound 1.265 µM): 0.904
relative viability ([15]; first compound 0.04 µM): 0.722
relative viability ([15]; first compound 0.1265 µM): 0.592
relative viability ([15]; first compound 0.4 µM): 0.87
relative viability ([15]; first compound 1.265 µM): 0.73
relative viability ([15]; first compound 4 µM): 0.714
relative viability ([16]; first compound 0.04 µM): 0.68
relative viability ([16]; first compound 0.1265 µM): 0.517
relative viability ([16]; first compound 0.4 µM): 0.44
relative viability ([16]; first compound 1.265 µM): 0.407
relative viability ([16]; first compound 4 µM): 0.223
relative viability ([17]; first compound 0.04 µM): 0.547
relative viability ([17]; first compound 0.1265 µM): 0.586
relative viability ([17]; first compound 0.4 µM): 0.44
relative viability ([17]; first compound 1.265 µM): 0.168
relative viability ([17]; first compound 4 µM): 0.141
relative viability ([18]; first compound 0.04 µM): 0.797
relative viability ([18]; first compound 0.1265 µM): 0.688
relative viability ([18]; first compound 0.4 µM): 0.676
relative viability ([18]; first compound 1.265 µM): 0.477
relative viability ([18]; first compound 4 µM): 0.289
relative viability ([19]; first compound 0.04 µM): 0.787
relative viability ([19]; first compound 0.1265 µM): 0.564
relative viability ([19]; first compound 0.4 µM): 0.44
relative viability ([19]; first compound 1.265 µM): 0.203
relative viability ([19]; first compound 4 µM): 0.16
relative viability ([20]; first compound 0.04 µM): 0.725
relative viability ([20]; first compound 0.1265 µM): 0.767
relative viability ([20]; first compound 0.4 µM): 0.583
relative viability ([20]; first compound 1.265 µM): 0.382
relative viability ([20]; first compound 4 µM): 0.346
relative viability ([21]; first compound 0.04 µM): 1.03
relative viability ([21]; first compound 0.4 µM): 0.79
relative viability ([21]; first compound 1.265 µM): 0.413
relative viability ([21]; first compound 4 µM): 0.276

Reference: the supplement of paper PMC10307832
